In US5935932A, “Bradykinin antagonists containing pentafluorophenylalanine” (University Technology Corporation, priority 1998, dated 1999):
Read-outs that look alike come from different tables or passages of the source. Where a SMILES comes first, the peptide text is derived from it. [ ]: non-standard residue; d: D form. dPhe(F5) = N[C@H](Cc1c(F)c(F)c(F)c(F)c1F)C(=O)O; Oic = O=C(O)[C@@H]1C[C@@H]2CCCC[C@@H]2N1; Igl = N[C@H](C(=O)O)C1Cc2ccccc2C1; Hyp = O=C(O)[C@@H]1C[C@@H](O)CN1; NMeF = CN[C@@H](Cc1ccccc1)C(=O)O

Legend:
[1] = molecular target: T1, bradykinin receptors in Rat Uterus (Rattus norvegicus, UniProt P25023); assay: Rat Uterus functional assay; type: cell-based
T1 construct: describes the Rat Uterus assay used to analyze the present compounds; from tissue; host or cells: isolated rat uterus
T1 sequence (P25023 1-396): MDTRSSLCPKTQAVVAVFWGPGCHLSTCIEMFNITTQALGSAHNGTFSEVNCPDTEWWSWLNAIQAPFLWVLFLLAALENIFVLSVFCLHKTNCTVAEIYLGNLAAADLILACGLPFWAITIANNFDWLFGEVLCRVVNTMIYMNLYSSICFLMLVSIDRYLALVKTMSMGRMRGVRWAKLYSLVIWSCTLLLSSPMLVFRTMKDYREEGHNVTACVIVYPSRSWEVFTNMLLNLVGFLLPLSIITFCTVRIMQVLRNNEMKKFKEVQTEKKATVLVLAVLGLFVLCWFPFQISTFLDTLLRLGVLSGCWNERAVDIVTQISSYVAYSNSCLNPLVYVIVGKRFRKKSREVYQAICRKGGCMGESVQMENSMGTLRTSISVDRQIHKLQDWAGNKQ
Source text: 4. Rat Uterus functional assay Trautshold, Handbook of Expt. Pharmacol. […] The Trautshold method was used without changes to the parameters. U.S. Pat. No. 4,693,993, at Column 14, line 10 gives a general description of data analysis for this assay. In this table, I=inhibitor, and numbers in parenthesis are pA2. Agonist activity are given as percent BK activity.

[2] = molecular target: T2, bradykinin receptors in Guinea Pig Ileum (Cavia porcellus, UniProt O70526); assay: Guinea Pig Ileum functional assay; type: cell-based
T2 construct: describes the Guinea Pig Ileum assay used to analyze the present compounds; from tissue; host or cells: isolated guinea pig ileum
T2 sequence (O70526 1-372): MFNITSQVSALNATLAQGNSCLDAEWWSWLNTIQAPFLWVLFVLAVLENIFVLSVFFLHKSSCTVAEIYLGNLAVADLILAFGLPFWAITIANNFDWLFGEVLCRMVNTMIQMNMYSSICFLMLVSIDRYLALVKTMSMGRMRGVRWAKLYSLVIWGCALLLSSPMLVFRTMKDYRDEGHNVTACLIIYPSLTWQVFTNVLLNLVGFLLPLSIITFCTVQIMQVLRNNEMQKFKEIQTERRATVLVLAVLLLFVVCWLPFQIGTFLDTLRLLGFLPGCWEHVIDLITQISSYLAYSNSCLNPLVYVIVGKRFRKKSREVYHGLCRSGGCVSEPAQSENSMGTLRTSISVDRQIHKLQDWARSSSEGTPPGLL
Source text: 5. Guinea Pig Ileum functional assay
Trautshold, Handbook of Expt. Pharmacol. Vol 25, Springer Verlag pp 53-55 (1970) describes the Guinea Pig Ileum assay used to analyze the present compounds. The Trautshold method was used without changes to the parameters. U.S. Pat. No. 4,693,993, at Column 14, line 10 gives a general description of data analysis for this assay.
In this table, I=inhibitor, and numbers in parenthesis are pA2. Agonist activity are given as percent BK activity.

[3] = number in parenthesis is pA2, read-out: Ileum, pA2 (I=inhibitor) (converted)
[4] = Ileum, pA2 (I=inhibitor), number in parenthesis is pA2

Row | Structure (SMILES) | Kb [1] [nM] | Kb [2, 3] [nM] | Uterus, agonist activity as percent BK activity ([1]; rat uterus) [%] | Kb [2, 4] [nM] | Uterus, activity in words ([1]; rat uterus, symbol without number)
1 | N=C(N)NCCC[C@@H](N)C(=O)N[C@@H](CCCNC(=N)N)C(=O)N1CCC[C@H]1C(=O)N1C[C@H](O)C[C@H]1C(=O)NCC(=O)N[C@H](C(=O)N[C@@H](CO)C(=O)N[C@H](Cc1c(F)c(F)c(F)c(F)c1F)C(=O)N1[C@H](C(=O)N[C@@H](CCCNC(=N)N)C(=O)O)C[C@@H]2CCCC[C@@H]21)C1Cc2ccccc2C1 [Compound B10044, DArg-Arg-Pro-Hyp-Gly-Igl-Ser-Df5f-Oic-Arg] | 7.94 | 3.98 |  |  | 
2 | N=C(N)NCCC[C@@H](N)C(=O)N[C@@H](CCCNC(=N)N)C(=O)N1CCC[C@H]1C(=O)N1C[C@H](O)C[C@H]1C(=O)NCC(=O)N[C@H](C(=O)N[C@@H](CO)C(=O)N[C@H](Cc1c(F)c(F)c(F)c(F)c1F)C(=O)N[C@H](C(=O)N[C@@H](CCCNC(=N)N)C(=O)O)C1Cc2ccccc2C1)C1Cc2ccccc2C1 [Compound B10056, DArg-Arg-Pro-Hyp-Gly-Igl-Ser-Df5f-Igl-Arg] |  |  | 9.5 | 10 | 
3 | N=C(N)NCCC[C@@H](N)C(=O)N[C@@H](CCCNC(=N)N)C(=O)N1CCC[C@H]1C(=O)N1C[C@H](O)C[C@H]1C(=O)NCC(=O)N[C@H](C(=O)N[C@@H](CO)C(=O)N[C@H](Cc1c(F)c(F)c(F)c(F)c1F)C(=O)N[C@@H](Cc1cccs1)C(=O)N[C@@H](CCCNC(=N)N)C(=O)O)C1Cc2ccccc2C1 [Compound B10058, DArg-Arg-Pro-Hyp-Gly-Igl-Ser-Df5f-Thi-Arg] | 6.31 | 12.6 |  |  | 
4 | N=C(N)NCCC[C@@H](N)C(=O)N[C@@H](CCCNC(=N)N)C(=O)N1CCC[C@H]1C(=O)N1C[C@H](O)C[C@H]1C(=O)NCC(=O)N[C@H](C(=O)N[C@@H](CO)C(=O)N[C@H](Cc1c(F)c(F)c(F)c(F)c1F)C(=O)N(CC(=O)N[C@@H](CCCNC(=N)N)C(=O)O)C1CCCCC1)C1Cc2ccccc2C1 [Compound B10112, DArg-Arg-Pro-Hyp-Gly-Igl-Ser-Df5f-NchG-Arg] |  |  | 21 | 25.1 | 
5 | N=C(N)NCCC[C@H](NC(=O)[C@@H]1C[C@@H]2CCCC[C@@H]2N1C(=O)[C@@H](Cc1c(F)c(F)c(F)c(F)c1F)NC(=O)[C@H](CO)NC(=O)[C@H](Cc1cccs1)NC(=O)CNC(=O)[C@@H]1CCCN1C(=O)[C@@H]1CCCN1C(=O)[C@H](CCCNC(=N)N)NC(=O)[C@@H](CCCNC(=N)N)NC(=O)[C@H](CCCCN)NC(=O)CCCCCCCCCCC(=O)N[C@@H](CCCCN)C(=O)N[C@H](CCCNC(=N)N)C(=O)N[C@@H](CCCNC(=N)N)C(=O)N1CCC[C@H]1C(=O)N1CCC[C@H]1C(=O)NCC(=O)N[C@@H](Cc1cccs1)C(=O)N[C@@H](CO)C(=O)N[C@H](Cc1c(F)c(F)c(F)c(F)c1F)C(=O)N1[C@H](C(=O)N[C@@H](CCCNC(=N)N)C(=O)O)C[C@@H]2CCCC[C@@H]21)C(=O)O [Compound B10118, αDDD-(Lys-DArg-Arg-Pro-Pro-Gly-Thi-Ser-Df5f-Oic-Arg)2] | 7.94 | 5.01 |  |  | 
6 | N=C(N)NCCC[C@H](NC(=O)[C@H](CCCCN)NC(=O)[C@@H](N)CCCCN)C(=O)N1CCC[C@H]1C(=O)N1C[C@H](O)C[C@H]1C(=O)NCC(=O)N[C@H](C(=O)N[C@@H](CO)C(=O)N[C@H](Cc1c(F)c(F)c(F)c(F)c1F)C(=O)N[C@H](C(=O)O)C1CCCCC1)C1Cc2ccccc2C1 [Compound B10146, Lys-Lys-Arg-Pro-Hyp-Gly-Igl-Ser-Df5f-Chg] |  |  |  | 1260 | Ag
7 | N=C(N)NCCC[C@H](NC(=O)[C@H](CCCCN)NC(=O)[C@@H](N)CCCCN)C(=O)N1CCC[C@H]1C(=O)N1C[C@H](O)C[C@H]1C(=O)NCC(=O)N[C@H](C(=O)N[C@@H](CO)C(=O)N[C@H](Cc1c(F)c(F)c(F)c(F)c1F)C(=O)N1[C@H](C(=O)O)C[C@@H]2CCCC[C@@H]21)C1Cc2ccccc2C1 [Compound B10148, Lys-Lys-Arg-Pro-Hyp-Gly-Igl-Ser-Df5f-Oic] | 63.1 | 1000 |  |  | 
8 | CN(C(=O)[C@H](CCCNC(=N)N)NC(=O)[C@H](N)CCCNC(=N)N)[C@@H](Cc1ccccc1)C(=O)N1C[C@H](O)C[C@H]1C(=O)NCC(=O)N[C@H](C(=O)N[C@@H](CO)C(=O)N[C@H](Cc1c(F)c(F)c(F)c(F)c1F)C(=O)N1[C@H](C(=O)N[C@@H](CCCNC(=N)N)C(=O)O)C[C@@H]2CCCC[C@@H]21)C1Cc2ccccc2C1 [Compound B10150, DArg-Arg-NMF-Hyp-Gly-Igl-Ser-Df5f-Oic-Arg] (H-[dR]R[NMeF][Hyp]G[Igl]S[dPhe(F5)][Oic]R-OH; N-terminus and C-terminus assumed) | 7.94 | 12.6 |  |  | 
9 | N=C(N)NCCC[C@H](NC(=O)[C@@H]1C[C@@H]2CCCC[C@@H]2N1C(=O)[C@@H](Cc1c(F)c(F)c(F)c(F)c1F)NC(=O)[C@H](CO)NC(=O)[C@@H](NC(=O)CNC(=O)[C@@H]1C[C@@H](O)CN1C(=O)[C@@H]1CCCN1C(=O)[C@H](CCCNC(=N)N)NC(=O)[C@@H](CCCNC(=N)N)NC(=O)C12CC3CC(CC(C3)C1)C2)C1Cc2ccccc2C1)C(=O)O [Compound B10154, Aca-DArg-Arg-Pro-Hyp-Gly-Igl-Ser-Df5f-Oic-Arg] | 6.31 | 12.6 |  |  | 
10 | N=C(N)NCCC[C@H](NC(=O)[C@@H]1C[C@@H]2CCCC[C@@H]2N1C(=O)[C@@H](Cc1c(F)c(F)c(F)c(F)c1F)NC(=O)[C@H](CO)NC(=O)[C@@H](NC(=O)CNC(=O)[C@@H]1C[C@@H](O)CN1C(=O)[C@@H]1CCCN1C(=O)[C@H](CCCNC(=N)N)NC(=O)[C@@H](CCCNC(=N)N)NC(=O)CN(CCCNC(=N)N)CCCNC(=N)N)C1Cc2ccccc2C1)C(=O)O [Compound B10156, Gun2-bApg-DArg-Arg-Pro-Hyp-Gly-Igl-Ser-Df5f-Oic-Arg] | 5.01 | 12.6 |  |  | 
11 | N=C(N)NCCC[C@H](NC(=O)[C@@H]1C[C@@H]2CCCC[C@@H]2N1C(=O)[C@@H](Cc1c(F)c(F)c(F)c(F)c1F)NC(=O)[C@H](CO)NC(=O)[C@@H](NC(=O)CNC(=O)[C@@H]1C[C@@H](O)CN1C(=O)[C@@H]1CCCN1C(=O)[C@H](CCCNC(=N)N)NC(=O)[C@@H](CCCNC(=N)N)NC(=O)[C@H](CCCCN)NC(=O)CCCCCCCCCCC(=O)N[C@@H](CCCCN)C(=O)N[C@H](CCCNC(=N)N)C(=O)N[C@@H](CCCNC(=N)N)C(=O)N1CCC[C@H]1C(=O)N1C[C@H](O)C[C@H]1C(=O)NCC(=O)N[C@H](C(=O)N[C@@H](CO)C(=O)N[C@H](Cc1c(F)c(F)c(F)c(F)c1F)C(=O)N1[C@H](C(=O)N[C@@H](CCCNC(=N)N)C(=O)O)C[C@@H]2CCCC[C@@H]21)C1Cc2ccccc2C1)C1Cc2ccccc2C1)C(=O)O [Compound B10158, αDDD-(Lys-Darg-Arg-Pro-Hyp-Gly-Igl-Ser-Df5f-Oic-Arg)2] | 3.16 | 10 |  |  | 
12 | N=C(N)NCCC[C@@H](N)C(=O)N[C@@H](CCCNC(=N)N)C(=O)N1CCC[C@H]1C(=O)N1C[C@H](O)C[C@H]1C(=O)NCC(=O)N[C@@H](Cc1c(F)c(F)c(F)c(F)c1F)C(=O)N[C@@H](CO)C(=O)N[C@@H](C(=O)N1[C@H](C(=O)N[C@@H](CCCNC(=N)N)C(=O)O)C[C@@H]2CCCC[C@@H]21)C1Cc2ccccc2C1 [Compound B10164, DArg-Arg-Pro-Hyp-Gly-f5f-Ser-DIgl-Oic-Arg] | 10 | 63.1 |  |  | 
13 | N=C(N)NCCC[C@@H](N)C(=O)N[C@@H](CCCNC(=N)N)C(=O)N1CCC[C@H]1C(=O)N1C[C@H](O)C[C@H]1C(=O)NCC(=O)N[C@@H](Cc1cccs1)C(=O)N[C@@H](CO)C(=O)N[C@H](Cc1c(F)c(F)c(F)c(F)c1F)C(=O)N[C@@H](Cc1c(F)c(F)c(F)c(F)c1F)C(=O)N[C@@H](CCCNC(=N)N)C(=O)O [Compound B10166, DArg-Arg-Pro-Hyp-Gly-Thi-Ser-Df5f-f5f-Arg] | 7.94 | 10 |  |  | 
14 | N=C(N)NCCC[C@@H](N)C(=O)N[C@@H](CCCNC(=N)N)C(=O)N1CCC[C@H]1C(=O)N1C[C@H](O)C[C@H]1C(=O)NCC(=O)N[C@@H](Cc1c(F)c(F)c(F)c(F)c1F)C(=O)N[C@@H](CO)C(=O)N[C@@H](C(=O)N1[C@H](C(=O)N[C@@H](CCCNC(=N)N)C(=O)O)C[C@@H]2CCCC[C@@H]21)C1Cc2ccccc2C1 [Compound B10210, DArg-Arg-Pro-Hyp-Gly-f5f-Ser-DIgl-Oic-Arg] |  | 15.8 |  |  | 
